Source: patent US20160046616A1, “NRF2 SMALL MOLECULE INHIBITORS FOR CANCER THERAPY” (THE JOHNS HOPKINS UNIVERSITY, priority 2013, published 2016)

Legend:
[1] = test system: H1437 NRF2-ARE-Fluc stable cell line; assay: H1437 Nrf2 assay: NRF2-ARE firefly luciferase reporter gene assay; assay type: cell-based; details: Homo sapiens, NCI-H1437, H1437 NRF2-ARE-Fluc stable cell line; read-out: Potency of inhibition, H1437
[2] = test system: A549 NRF2-ARE-Fluc stable cell line; assay: A549 Nrf2 assay: NRF2-ARE firefly luciferase reporter gene assay; assay type: cell-based; details: Homo sapiens, read-out: Potency of inhibition, A549
How it was run: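 A549 cells (Keap1 loss-of-function, constitutive NRF2) stably carrying ARE-driven firefly luciferase; compound treatment 18–24 h at 37 °C, 0.46% DMSO final.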

SMILES | IC50 [1] | IC50 [2]
Cc1ncoc1C(=O)N1CCc2cc(-c3nc(NC(=O)Cc4ccc5c(c4)OCO5)sc3C)ccc21 [Compound 181] | > 25 µM | < 5 µM
Cc1ccsc1C(=O)N1CCc2cc(-c3nc(NC(=O)Cc4ccc5c(c4)OCO5)sc3C)ccc21 [Compound 182] | < 5 µM | < 5 µM
Cc1noc(C)c1C(=O)N1CCc2cc(-c3nc(NC(=O)Cc4ccc5c(c4)OCO5)sc3C)ccc21 [Compound 183] | < 5 µM | < 5 µM
Cc1sc(NC(=O)Cc2ccc3c(c2)OCO3)nc1-c1ccc2c(c1)CCN2C(=O)c1cccn1C [Compound 184] | < 5 µM | < 5 µM
Cc1sc(NC(=O)Cc2ccc3c(c2)OCO3)nc1-c1ccc2c(c1)CCN2C(=O)c1ccnn1C [Compound 185] | < 5 µM | < 5 µM
Cc1sc(NC(=O)Cc2ccc3c(c2)OCO3)nc1-c1ccc2c(c1)CCN2C(=O)c1sccc1Cl [Compound 186] | < 5 µM | < 5 µM
Cc1sc(NC(=O)Cc2ccc3c(c2)OCO3)nc1-c1ccc2c(c1)CCN2C(=O)c1c(Cl)cnn1C [Compound 187] | < 5 µM | < 5 µM
Cc1cccc(Cn2ccc(C(=O)Nc3ncc(Cc4ccc(C(F)(F)F)cc4)s3)n2)c1 [Compound 189] | < 5 µM | 5 to 25 µM
Cc1nccc(Cn2ccc(C(=O)Nc3ncc(Cc4ccc(C(F)(F)F)cc4)s3)n2)n1 [Compound 190] | 5 to 25 µM | 5 to 25 µM
Cc1cc(Cn2ccc(C(=O)Nc3ncc(Cc4ccc(C(F)(F)F)cc4)s3)n2)ccn1 [Compound 191] | < 5 µM | < 5 µM
O=C(Nc1ncc(Cc2ccc(C(F)(F)F)cc2)s1)c1ccn(Cc2ccccn2)n1 [Compound 192] | > 25 µM | > 25 µM
Cc1cc(C(=O)Nc2ncc(Cc3ccc(C(F)(F)F)cc3)s2)nn1Cc1ccccn1 [Compound 193] | < 5 µM | < 5 µM
Cc1cc(C(=O)Nc2ncc(Cc3ccc(C(F)(F)F)cc3)s2)nn1CCN1CCOCC1 [Compound 194] | 5 to 25 µM | 5 to 25 µM
COc1ccc(CC(=O)Nc2nc(-c3ccc4c(c3)CCN4C(=O)C3CC3)c(C)s2)cc1 [Compound 195] | 5 to 25 µM | < 5 µM
COc1ccc(CC(=O)Nc2nc(-c3ccc4c(c3)CCN4C(=O)c3cccnc3C)c(C)s2)cc1 [Compound 196] | < 5 µM | < 5 µM
COc1ccc(CC(=O)Nc2nc(-c3ccc4c(c3)CCN4C(=O)c3ccnn3C)c(C)s2)cc1 [Compound 197] | < 5 µM | < 5 µM
CC(=O)N1CCN(S(=O)(=O)c2ccc(NC(=O)c3ccc(CN4CCc5ccccc5C4)cc3)cc2)CC1 [Compound 198] | < 5 µM | < 5 µM
CCOC(=O)N1CCN(S(=O)(=O)c2ccc(NC(=O)c3ccc(CN4CCc5ccccc5C4)cc3)cc2)CC1 [Compound 199] | < 5 µM | < 5 µM
CC(=O)N1CCN(Cc2ccc(C(=O)Nc3ccc(S(=O)(=O)N4CCOCC4)cc3)cc2)CC1 [Compound 201] | 5 to 25 µM | 5 to 25 µM
CCOC(=O)N1CCN(Cc2ccc(C(=O)Nc3ccc([S+](=O)([O-])N4CCOCC4)cc3)cc2)CC1 [Compound 202] | 5 to 25 µM | 5 to 25 µM
O=C(Nc1ccc(S(=O)(=O)N2CCOCC2)cc1)c1ccc(CN2CCN(c3ccccc3)CC2)cc1 [Compound 203] | < 5 µM | < 5 µM
O=C(Nc1ccc(S(=O)(=O)N2CCOCC2)cc1)c1ccc(CN2Cc3ccccc3C2)cc1 [Compound 204] | < 5 µM | < 5 µM
O=C(Nc1ccc(S(=O)(=O)N2CCOCC2)cc1)c1ccc(CN2CCC(c3ccccc3)CC2)cc1 [Compound 205] | < 5 µM | < 5 µM
CC1Cc2ccccc2CN1Cc1ccc(C(=O)Nc2ccc([S+](=O)([O-])N3CCOCC3)cc2)cc1 (centres unmarked) [Compound 206] | < 5 µM | < 5 µM
O=C(Nc1ccc(S(=O)(=O)N2CCOCC2)cc1)c1ccc(CN2CCCC(c3ccccc3)C2)cc1 (centres unmarked) [Compound 207] | 5 to 25 µM | 5 to 25 µM
COc1ccc(CC(=O)Nc2nc(-c3ccc4c(c3)CCN4C(=O)C3CC3C)c(C)s2)cc1 (centres unmarked) [Compound 208] | < 5 µM | < 5 µM
Cc1ccccc1C(=O)N1CCc2cc(-c3nc(NC(=O)C(C)(C)C)sc3C)ccc21 [Compound 209] | < 5 µM | 5 to 25 µM
Cc1ccccc1C(=O)N1CCc2cc(-c3nc(NC(=O)CCc4ccccc4)sc3C)ccc21 [Compound 210] | 5 to 25 µM | < 5 µM

SMILES | IC50 [1] | IC50 [2]
O=C(Nc1ccc(S(=O)(=O)N2CCOCC2)cc1)c1cccc(CN2CCc3ccccc3C2)c1 [Compound 211] | 5 to 25 µM | 5 to 25 µM
Cc1ccccc1C(=O)N1CCc2cc(-c3nc(NC(=O)CN4CCN(C(=O)C5CC5)CC4)sc3C)ccc21 [Compound 212] | < 5 µM | < 5 µM
Cc1ccc(Cc2cnc(NC(=O)c3ccn(-c4ccccc4)n3)s2)o1 [Compound 213] | 5 to 25 µM | 5 to 25 µM
Cc1ccccc1Cc1cnc(NC(=O)c2ccn(-c3ccccc3)n2)s1 [Compound 214] | 5 to 25 µM | 5 to 25 µM
O=C(Nc1ncc(Cc2ccccc2F)s1)c1ccn(-c2ccccc2)n1 [Compound 215] | < 5 µM | < 5 µM
O=C(Nc1ncc(Cc2ccccc2Cl)s1)c1ccn(-c2ccccc2)n1 [Compound 216] | 5 to 25 µM | 5 to 25 µM
Cc1cccc(Cc2cnc(NC(=O)c3ccn(-c4ccccc4)n3)s2)c1 [Compound 217] | 5 to 25 µM | 5 to 25 µM
O=C(Nc1ncc(Cc2cccc(F)c2)s1)c1ccn(-c2ccccc2)n1 [Compound 218] | < 5 µM | 5 to 25 µM
COc1cccc(Cc2cnc(NC(=O)c3ccn(-c4ccccc4)n3)s2)c1 [Compound 219] | 5 to 25 µM | < 5 µM
O=C(Nc1ncc(Cc2cccc(Cl)c2)s1)c1ccn(-c2ccccc2)n1 [Compound 220] | < 5 µM | 5 to 25 µM
Cc1ccc(Cc2cnc(NC(=O)c3ccn(-c4ccccc4)n3)s2)cc1 [Compound 221] | 5 to 25 µM | 5 to 25 µM
O=C(Nc1ncc(Cc2ccc(F)cc2)s1)c1ccn(-c2ccccc2)n1 [Compound 222] | < 5 µM | < 5 µM
COc1ccc(Cc2cnc(NC(=O)c3ccn(-c4ccccc4)n3)s2)cc1 [Compound 223] | 5 to 25 µM | 5 to 25 µM
O=C(Nc1ncc(Cc2ccc(Cl)cc2)s1)c1ccn(-c2ccccc2)n1 [Compound 224] | < 5 µM | < 5 µM
CC(=O)N1CCN(CC(=O)Nc2nc(-c3ccc4c(c3)CCN4C(=O)c3ccccc3C)c(C)s2)CC1 [Compound 227] | 5 to 25 µM | 5 to 25 µM
CCOC(=O)N1CCN(CC(=O)Nc2nc(-c3ccc4c(c3)CCN4C(=O)c3ccccc3C)c(C)s2)CC1 [Compound 228] | < 5 µM | < 5 µM
Cc1ccccc1C(=O)N1CCc2cc(-c3nc(NC(=O)CN4CCN(c5ccccc5)CC4)sc3C)ccc21 [Compound 229] | < 5 µM | < 5 µM
CC1c2ccccc2CCN1Cc1ccc(C(=O)Nc2ccc(S(=O)(=O)N3CCOCC3)cc2)cc1 (centres unmarked) [Compound 230] | < 5 µM | < 5 µM
O=C(Nc1ncc(Cc2ccc(C(F)(F)F)cc2)s1)c1ccn(CCN2CCOCC2)n1 [Compound 231] | < 5 µM | 5 to 25 µM
COc1ccc(CC(=O)Nc2nc(-c3ccc4c(c3)CC(C)N4C(=O)c3ccccc3C)c(C)s2)cc1 (centres unmarked) [Compound 232] | 5 to 25 µM | 5 to 25 µM
COc1ccc(CC(=O)Nc2nc(-c3ccc4c(c3)CCN4C(=O)c3ccc(C4(C(F)(F)F)N=N4)cc3)c(C)s2)cc1 [Compound 233] | 5 to 25 µM | 5 to 25 µM
Cc1ccccc1C(=O)N1CCc2cc(-c3nc(NC(=O)Cc4cccc(O)c4)sc3C)ccc21 [Compound 234, 2-(3-hydroxyphenyl)-N-(5-methyl-4-(1-(2-methylbenzoyl)indolin-5-yl)thiazol-2-yl)acetamide] | 5 to 25 µM | 5 to 25 µM
Cc1ccccc1C(=O)N1CCc2cc(-c3nc(NC(=O)Cc4ccc(O)cc4)sc3C)ccc21 [Compound 235, 2-(4-hydroxyphenyl)-N-(5-methyl-4-(1-(2-methylbenzoyl)indolin-5-yl)thiazol-2-yl)acetamide] | 5 to 25 µM | 5 to 25 µM
Cc1ccccc1C(=O)N1CCc2cc(-c3nc(NC(=O)Cc4ccc(OCCOCCOCCNC(=O)OC(C)(C)C)cc4)sc3C)ccc21 [Compound 236, tert-butyl (2-(2-(2-(4-(2-((5-methyl-4-(1-(2-methylbenzoyl)indolin-5-yl)thiazol-2-yl)amino)-2-oxoethyl)phenoxy)ethoxy)ethoxy)ethyl)carbamate] | < 5 µM | < 5 µM
Cc1ccccc1C(=O)N1CCc2cc(-c3nc(NC(=O)Cc4cccc(OCCOCCOCCNC(=O)OC(C)(C)C)c4)sc3C)ccc21 [Compound 237, tert-butyl (2-(2-(2-(3-(2-((5-methyl-4-(1-(2-methylbenzoyl)indolin-5-yl)thiazol-2-yl)amino)-2-oxoethyl)phenoxy)ethoxy)ethoxy)ethyl)carbamate] | < 5 µM | < 5 µM
Cc1ccccc1C(=O)N1CCc2cc(-c3nc(NC(=O)Cc4cccc(OCCOCCOCCN)c4)sc3C)ccc21 [Compound 238, 2-(3-(2-(2-(2-aminoethoxy)ethoxy)ethoxy)phenyl)-N-(5-methyl-4-(1-(2-methylbenzoyl)indolin-5-yl)thiazol-2-yl)acetamide] | 5 to 25 µM | 5 to 25 µM
Cc1ccccc1C(=O)N1CCc2cc(-c3nc(NC(=O)Cc4ccc(OCCOCCOCCN)cc4)sc3C)ccc21 [Compound 239, 2-(4-(2-(2-(2-aminoethoxy)ethoxy)ethoxy)phenyl)-N-(5-methyl-4-(1-(2-methylbenzoyl)indolin-5-yl)thiazol-2-yl)acetamide] | 5 to 25 µM | > 25 µM
